For the experiment, the target named is HLA-DRB1*0401 (Homo sapiens, UniProt P01903+P01911, A100K/A169T/F76Y/I96L/K127E/L162R/M171V/N62H/P40V/Q125Y/R42H/S133A/S149N/S66Y/V115G/V209L/W38E). As to the kind of experiment: biochemical. Type of experiment: binding.

Where no end group is shown, it is not given here.

Usually IC50 stands for the concentration that inhibits the measured activity by half. For the compound `CC[C@H](C)[C@H](NC(=O)[C@H](CC(N)=O)NC(=O)[C@@H](N)CCC(N)=O)C(=O)N[C@@H](CC(C)C)C(=O)N[C@@H](CC(C)C)C(=O)N[C@@H](CO)C(=O)N[C@@H](CC(N)=O)C(=O)N[C@@H](C)C(=O)N1CCC[C@H]1C(=O)N[C@@H](CC(C)C)C(=O)NCC(=O)N1CCC[C@H]1C(=O)N[C@@H](CCC(N)=O)C(=O)N[C@@H](Cc1ccccc1)C(=O)N1CCC[C@H]1C(=O)O` [Ty 56-70], the half-maximal inhibitory concentration (IC50) worked out at 225 nM. In turn, DFSYLQDSDPDSFQD [Y449 F] had a concentration for half-maximal inhibition (IC50) of 1470 nM. On to DQSYLQDSDPDSFQD [Y449 Q], for which the IC50 was determined as 918 nM.

As to DYSFLQDSDPDSFQD [Y451 F], the concentration for half-maximal inhibition (IC50) was 563 nM. In the case of QNFLLSNAPLGPQFP [I58 F] it was 55 nM; in that of QNIFLSNAPLGPQFP [L59 F], 321 nM; in that of QNILFSNAPLGPQFP [L60 F], 1100 nM. On to QNILLSNAPQGPQFP [L65 Q], for which it took 2000 nM to reach half-maximal inhibition (IC50). QNILLSNAPVGPQFP [L65 V]: the half-inhibitory concentration (IC50) came out at 1500 nM. The value for QNILLSNAQLGPQFP [P64 Q] was 290 nM; that for QNILLSNAVLGPQFP [P64 V] was 158 nM; that for QNILLSNQPLGPQFP [A63 Q] was 7760 nM. The value for QNILLSNVPLGPQFP [A63 V] was 12 nM; that for QNILQSNAPLGPQFP [L60 Q] was 750 nM; that for QNILVSNAPLGPQFP [L60 V] was 612 nM. The value for QNIQLSNAPLGPQFP [L59 Q] was 750 nM. Compound QNIVLSNAPLGPQFP [L59 V] gave an IC50 of 95 nM. With QNQLLSNAPLGPQFP [I58 Q], the IC50 stood at 6770 nM. Regarding QNVLLSNAPLGPQFP [I58 V], half-maximal inhibition (IC50) required 957 nM.

The values above are taken from PMC2192565 (The Journal of Experimental Medicine, 1996).
